Laboratory results as given in the supplement of paper PMC10307832.

Tests used:
Test in all cases: relative viability (nuclei count vs DMSO), 5 days (fraction); higher = more cells survive
[1] = compound: CO[C@H]1C[C@@H]2CC[C@@H](C)[C@@](O)(O2)C(=O)C(=O)N2CCCC[C@H]2C(=O)O[C@H]([C@H](C)C[C@@H]2CC[C@@H](OCCO)[C@H](OC)C2)CC(=O)[C@H](C)/C=C(\C)[C@@H](O)[C@@H](OC)C(=O)[C@H](C)C[C@H](C)/C=C/C=C/C=C/1C [Everolimus] + N=C(N)NC(=N)NCCc1ccccc1 [Phenformin] (partner 250 µM)
Outline: (§1)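 Five library-drug doses in √10 steps were combined with a fixed anchor-drug dose, or a single drug was given alone, by pin tool to lung cancer cell lines in 1536-well plates the day after seeding. Nuclei were stained and counted after 5 days. Relative viability is the nuclei count in treated wells over that in vehicle wells, taken as the median of duplicate plates.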

[2] = compound: CO[C@H]1C[C@@H]2CC[C@@H](C)[C@@](O)(O2)C(=O)C(=O)N2CCCC[C@H]2C(=O)O[C@H]([C@H](C)C[C@@H]2CC[C@@H](OCCO)[C@H](OC)C2)CC(=O)[C@H](C)/C=C(\C)[C@@H](O)[C@@H](OC)C(=O)[C@H](C)C[C@H](C)/C=C/C=C/C=C/1C [Everolimus] + C[C@@H](Oc1cc(-c2cnn(C3CCNCC3)c2)cnc1N)c1c(Cl)ccc(F)c1Cl [Crizotinib] (partner 1 µM)
Outline: as §1

[3] = compound: CO[C@H]1C[C@@H]2CC[C@@H](C)[C@@](O)(O2)C(=O)C(=O)N2CCCC[C@H]2C(=O)O[C@H]([C@H](C)C[C@@H]2CC[C@@H](OCCO)[C@H](OC)C2)CC(=O)[C@H](C)/C=C(\C)[C@@H](O)[C@@H](OC)C(=O)[C@H](C)C[C@H](C)/C=C/C=C/C=C/1C [Everolimus] + COc1cccc2cc(-c3nc([C@H]4CC[C@H](C(=O)O)CC4)n4ncnc(N)c34)[nH]c12 [OSI-027] (partner 0.5 µM)
Outline: as §1

[4] = compound: CO[C@H]1C[C@@H]2CC[C@@H](C)[C@@](O)(O2)C(=O)C(=O)N2CCCC[C@H]2C(=O)O[C@H]([C@H](C)C[C@@H]2CC[C@@H](OCCO)[C@H](OC)C2)CC(=O)[C@H](C)/C=C(\C)[C@@H](O)[C@@H](OC)C(=O)[C@H](C)C[C@H](C)/C=C/C=C/C=C/1C [Everolimus] + CC(=O)Nc1cccc(-n2c(=O)n(C3CC3)c(=O)c3c(Nc4ccc(I)cc4F)n(C)c(=O)c(C)c32)c1 [Trametinib] (partner 0.02 µM)
Outline: as §1

Cell Line	relative viability ([1]; first compound 0.01 µM)	relative viability ([1]; first compound 0.03162 µM)	relative viability ([1]; first compound 0.1 µM)	relative viability ([1]; first compound 0.3162 µM)	relative viability ([1]; first compound 1 µM)	relative viability ([2]; first compound 0.01 µM)	relative viability ([2]; first compound 0.03162 µM)	relative viability ([2]; first compound 0.1 µM)	relative viability ([2]; first compound 0.3162 µM)	relative viability ([2]; first compound 1 µM)	relative viability ([3]; first compound 0.01 µM)	relative viability ([3]; first compound 0.03162 µM)	relative viability ([3]; first compound 0.1 µM)	relative viability ([3]; first compound 0.3162 µM)	relative viability ([3]; first compound 1 µM)	relative viability ([4]; first compound 0.01 µM)	relative viability ([4]; first compound 0.03162 µM)	relative viability ([4]; first compound 0.1 µM)	relative viability ([4]; first compound 0.3162 µM)	relative viability ([4]; first compound 1 µM)
201T	0.499	0.443	0.406	0.425	0.484	0.945	0.984	0.926	0.962	0.977	0.574	0.549	0.519	0.499	0.509	0.658	0.632	0.586	0.595	0.57
A549	0.164	0.122	0.154	0.0954	0.157	0.416	0.415	0.306	0.401	0.369	–	–	–	–	–	–	–	–	–	–
A-427	0.281	0.357	0.278	0.254	0.289	0.776	0.768	0.745	0.704	0.675	0.449	0.457	0.333	0.398	0.432	0.472	0.482	0.472	0.556	0.574
ABC-1	0.223	0.249	0.21	0.203	0.264	0.74	0.799	0.709	0.584	0.761	0.342	0.281	0.279	0.357	0.316	–	–	–	–	–
BEN	0.289	0.249	0.273	0.24	0.26	0.573	0.391	0.311	0.387	0.328	0.247	0.292	0.272	0.253	0.239	0.494	0.447	0.467	0.484	0.46
CAL-12T	0.472	0.549	0.356	0.503	0.482	0.432	0.569	0.233	0.401	0.265	0.221	0.299	0.25	0.309	0.296	0.193	0.187	0.172	0.191	0.191
COR-L23	0.368	0.413	0.395	0.421	0.424	0.515	0.597	0.623	0.666	0.635	0.334	0.352	0.374	0.419	0.367	0.37	0.337	0.316	0.375	0.294
COR-L 105	0.356	0.387	0.388	0.435	0.361	0.549	0.642	0.469	0.544	0.49	0.43	0.418	0.366	0.457	0.445	0.424	0.389	0.378	0.455	0.424
Calu-6	–	–	–	–	–	0.808	0.692	0.642	0.674	0.748	–	–	–	–	–	–	–	–	–	–
ChaGo-K-1	0.532	0.467	0.394	0.536	0.568	1.04	1.2	1.07	1.02	1.14	0.467	0.445	0.443	0.504	0.495	0.647	0.795	0.729	0.751	0.796
EBC-1	–	–	–	–	–	0.188	0.17	0.152	0.206	0.185	–	–	–	–	–	–	–	–	–	–
EKVX	0.242	0.22	0.22	0.222	0.25	0.718	0.656	0.684	0.721	0.75	0.518	0.427	0.289	0.358	0.43	–	0.294	0.257	0.268	0.382
EMC-BAC-2	0.377	0.364	0.322	0.383	0.422	0.562	0.546	0.485	0.504	0.535	0.288	0.275	0.274	0.307	0.283	0.502	0.605	0.536	–	0.503
EPLC-272H	0.281	0.259	0.236	0.245	0.268	0.68	0.573	0.542	0.512	0.601	0.206	0.204	0.203	0.24	0.253	0.199	0.227	0.179	0.205	0.204
H3255	0.332	0.271	0.354	0.363	0.288	0.575	0.505	0.498	0.555	0.527	0.531	0.426	0.381	0.402	0.339	0.414	0.391	0.351	0.433	0.403
HARA	0.412	0.489	–	0.419	0.466	1	1.12	0.928	0.986	0.952	0.277	0.345	–	0.282	0.336	0.425	0.394	0.346	0.559	0.339
